These results are taken from patent publication US7608619B2, “Substituted oxazole compounds with analgesic activity” (Gruenenthal GmbH, priority 2005, dated 2009).

Molecules are shown by their SMILES.

In the first assay the target is T1, human μ-opiate receptor (Homo sapiens, UniProt P35372).
T1 construct: purchased Nen company, Zaventem, Belgium RB-HOM; host or cells: CHO-K1 cells (membrane preparation)
T1 sequence (P35372 whole entry): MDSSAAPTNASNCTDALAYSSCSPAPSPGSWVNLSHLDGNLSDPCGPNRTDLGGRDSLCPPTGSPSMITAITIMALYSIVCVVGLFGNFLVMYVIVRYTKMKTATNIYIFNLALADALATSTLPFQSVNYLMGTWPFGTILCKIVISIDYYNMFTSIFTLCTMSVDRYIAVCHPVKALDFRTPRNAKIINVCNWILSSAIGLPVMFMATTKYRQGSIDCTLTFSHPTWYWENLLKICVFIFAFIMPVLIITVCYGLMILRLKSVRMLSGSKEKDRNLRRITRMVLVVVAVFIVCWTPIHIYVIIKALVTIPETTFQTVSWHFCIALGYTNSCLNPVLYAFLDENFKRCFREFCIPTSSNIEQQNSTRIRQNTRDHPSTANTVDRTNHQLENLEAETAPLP
As to the kind of experiment: Affinity for the human μ-opiate receptor ([3H]-naloxone displacement, SPA, CHO-K1 membrane preparation). The following applies: test substance 1 μmole/l; displacement of 1 nmole/l [3H]-naloxone; percentage inhibition of the specific binding. In outline: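 [3H]-naloxone (1 nmol/l) displacement by SPA with WGA beads, using membranes of CHO-K1 cells expressing the receptor, in 50 mmol/l Tris-HCl with 0.05% azide and 0.06% BSA; 90 min at room temperature. Non-specific binding defined with 25 μmol/l naloxone. Value is % inhibition of specific binding at 1 μmol/l test compound.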
As to `CN(CCc1ccccc1)c1oc(C(CC2CCC(C(c3ccc(F)cc3)N(C)C)CC2)N(C)c2ccccc2)nc1Cc1ccccc1` (centres unmarked) [compound 102, {4-benzyl-2-[2-{4-[dimethylamino-(4-fluorophenyl)-methyl]-cyclohexyl}-1-(methylphenylamine)-ethyl]-oxazol-5-yl}-methylphenethylamine], the “μ-opioid receptor, % inhibition [1 μM]” value was 77%.
Same read-out and setting: the figure for `CCN(CC)c1oc(C(CC2CCC(C(c3ccc(F)cc3)N(C)C)CC2)N(C)c2ccccc2)nc1Cc1ccccc1` (centres unmarked) [compound 103, {4-benzyl-2-[2-{4-[dimethylamino-(4-fluorophenyl)-methyl]-cyclohexyl}-1-(methylphenylamine)-ethyl]-oxazol-5-yl}-diethylamine] is 79%.

The assay is the same for the next values; noted with them: test substance 1 μmole/l; displacement of 1 nmole/l [3H]-naloxone; percentage inhibition of the specific binding; read-out: μ-opioid receptor, % inhibition [1 μM].
For `CN(CCc1ccccc1)c1oc(C(CC2CCC(C(c3ccc(Cl)cc3)N(C)C)CC2)N2CCCCC2)nc1Cc1ccccc1` (centres unmarked) [compound 86, [4-benzyl-2-(2-{4-[(4-chlorophenyl)-dimethylaminomethyl]-cyclohexyl}-1-piperidin-1-yl-ethyl)-oxazol-5-yl]-methylphenethylamine], the inhibition at 1 µM came to 63%.
Same read-out and setting: to `CCN(CC)c1oc(C(CC2CCC(C(c3ccc(Cl)cc3)N(C)C)CC2)N2CCCCC2)nc1Cc1ccccc1` (centres unmarked) [compound 87, [4-benzyl-2-(2-{4-[(4-chlorophenyl)-dimethylaminomethyl]-cyclohexyl}-1-piperidin-1-yl-ethyl)-oxazol-5-yl]-diethylamine] belongs 64%; to `CCN(CC)C(CC1CCC(C(c2ccc(Cl)cc2)N(C)C)CC1)c1nc(Cc2ccccc2)c(N2CC(C)CC(C)C2)o1` (centres unmarked) [compound 88, (1-[4-benzyl-5-(3,5-dimethylpiperidin-1-yl)-oxazol-2-yl]-2-{4-[(4-chlorophenyl)-dimethylaminomethyl]-cyclohexyl}-ethyl)-diethylamine], 79%.
With `CCN(CC)C(CC1CCC(C(c2ccc(Cl)cc2)N(C)C)CC1)c1nc(Cc2ccccc2)c(N(C)CCc2ccccc2)o1` (centres unmarked) [compound 89, [4-benzyl-2-(2-{4-[(4-chlorophenyl)-dimethylaminomethyl]-cyclohexyl}-1-diethylaminoethyl)-oxazol-5-yl]-methyl-phenethylamine], the inhibition at 1 µM was found to be 87%.
Regarding `CCN(CC)c1oc(C(CC2CCC(C(c3ccc(Cl)cc3)N(C)C)CC2)N(CC)CC)nc1Cc1ccccc1` (centres unmarked) [compound 90, [4-benzyl-2-(2-{4-[(4-chlorophenyl)-dimethylaminomethyl]-cyclohexyl}-1-diethylaminoethyl)-oxazol-5-yl]-diethylamine], the inhibition at 1 µM was found to be 89%.
As for `CCN(CC)C(CC1CCC(C(c2ccc(Cl)cc2)N(C)C)CC1)c1nc(Cc2ccccc2)c(N2CCSCC2)o1` (centres unmarked) [compound 91, (1-(4-benzyl-5-thiomorpholin-4-yl-oxazol-2-yl)-2-{4-[(4-chlorophenyl)-dimethylaminomethyl]-cyclohexyl}-ethyl)-diethylamine], the inhibition at 1 µM was 75%.
On the same count and under the same terms, to `CN(C)C(c1ccc(Cl)cc1)C1CCC(CC(c2nc(Cc3ccccc3)c(N3CCSCC3)o2)N(C)c2ccccc2)CC1` (centres unmarked) [compound 92, (1-(4-benzyl-5-thiomorpholin-4-yl-oxazol-2-yl)-2-{4-[(4-chlorophenyl)-dimethylaminomethyl]-cyclohexyl}-ethyl)-methylphenylamine] belongs 87%; to `CN(CCc1ccccc1)c1oc(C(CC2CCC(C(c3ccc(Cl)cc3)N(C)C)CC2)N2CCN(Cc3ccccc3)CC2)nc1Cc1ccccc1` (centres unmarked) [compound 93, [4-Benzyl-2-(1-(4-benzylpiperazin-1-yl)-2-{4-[(4-chlorophenyl)-dimethylaminomethyl]-cyclohexyl}-ethyl)-oxazol-5-yl]-methylphenethyl-amine], 66%.
On the same count and under the same terms, to `CCN(CC)c1oc(C(CC2CCC(C(c3ccc(Cl)cc3)N(C)C)CC2)N2CCN(Cc3ccccc3)CC2)nc1Cc1ccccc1` (centres unmarked) [compound 94, [4-benzyl-2-(1-(4-benzylpiperazin-1-yl)-2-{4-[(4-chlorophenyl)-dimethylaminomethyl]-cyclohexyl}-ethyl)-oxazol-5-yl]-diethylamine] belongs 74%; to `CN(CCc1ccccc1)c1oc(C(CC2CCC(C(c3ccc(F)cc3)N(C)C)CC2)N2CCCCC2)nc1Cc1ccccc1` (centres unmarked) [compound 95, [4-benzyl-2-(2-{4-[dimethylamino-(4-fluorophenyl)-methyl]-cyclohexyl}-1-piperidin-1-yl-ethyl)-oxazol-5-yl]-methylphenethylamine], 65%.
Still for that read-out and setting: the figure for `CCN(CC)C(CC1CCC(C(c2ccc(F)cc2)N(C)C)CC1)c1nc(Cc2ccccc2)c(N2CC(C)CC(C)C2)o1` (centres unmarked) [compound 96, (1-[4-benzyl-5-(3,5-dimethylpiperidin-1-yl)-oxazol-2-yl]-2-{4-[dimethylamino-(4-fluorophenyl)-methyl]-cyclohexyl}-ethyl)-diethylamine] is 80%.
For `CCN(CC)C(CC1CCC(C(c2ccc(F)cc2)N(C)C)CC1)c1nc(Cc2ccccc2)c(N(C)CCc2ccccc2)o1` (centres unmarked) [compound 97, [4-benzyl-2-(1-diethylamino-2-{4-[dimethylamino-(4-fluorophenyl)-methyl]-cyclohexyl}-ethyl)-oxazol-5-yl]-methylphenethylamine], the inhibition at 1 µM worked out at 85%.
On the same count and under the same terms, the figure for `CCN(CC)c1oc(C(CC2CCC(C(c3ccc(F)cc3)N(C)C)CC2)N(CC)CC)nc1Cc1ccccc1` (centres unmarked) [compound 98, [4-benzyl-2-(1-diethylamino-2-{4-[dimethylamino-(4-fluorophenyl)-methyl]-cyclohexyl}-ethyl)-oxazol-5-yl]-diethylamine] is 77%.
Same read-out and setting: the figure for `CCN(CC)C(CC1CCC(C(c2ccc(F)cc2)N(C)C)CC1)c1nc(Cc2ccccc2)c(N2CCSCC2)o1` (centres unmarked) [compound 99, (1-(4-benzyl-5-thiomorpholin-4-yl-oxazol-2-yl)-2-{4-[dimethylamino-(4-fluorophenyl)-methyl]-cyclohexyl}-ethyl)-diethylamine] is 62%; for `CCN(CC)C(CC1CCC(C(c2ccc(F)cc2)N(C)C)CC1)c1nc(Cc2ccccc2)c(N2CCCC(C)C2)o1` (centres unmarked) [compound 100, (1-[4-benzyl-5-(3-methylpiperidin-1-yl)-oxazol-2-yl]-2-{4-[dimethylamino-(4-fluorophenyl)-methyl]-cyclohexyl}-ethyl)-diethylamine] it is 86%; for `CC1CC(C)CN(c2oc(C(CC3CCC(C(c4ccc(F)cc4)N(C)C)CC3)N(C)c3ccccc3)nc2Cc2ccccc2)C1` (centres unmarked) [compound 101, (1-[4-benzyl-5-(3,5-dimethylpiperidin-1-yl)-oxazol-2-yl]-2-{4-[dimethylamino-(4-fluorophenyl)-methyl]-cyclohexyl}-ethyl)-methylphenylamine] it is 68%.
Turning to `CN(C)C(c1ccc(F)cc1)C1CCC(CC(c2nc(Cc3ccccc3)c(N3CCSCC3)o2)N(C)c2ccccc2)CC1` (centres unmarked) [compound 104, (1-(4-benzyl-5-thiomorpholin-4-yl-oxazol-2-yl)-2-{4-[dimethylamino-(4-fluorophenyl)-methyl]-cyclohexyl}-ethyl)-methylphenylamine], the inhibition at 1 µM is 89%.
On the same count and under the same terms, to `CC1CCCN(c2oc(C(CC3CCC(C(c4ccc(F)cc4)N(C)C)CC3)N(C)c3ccccc3)nc2Cc2ccccc2)C1` (centres unmarked) [compound 105, (1-[4-benzyl-5-(3-methylpiperidin-1-yl)-oxazol-2-yl]-2-{4-[dimethylamino-(4-fluorophenyl)-methyl]-cyclohexyl}-ethyl)-methylphenylamine] belongs 71%; to `CC1CCCN(c2oc(C(CC3CCC(C(c4ccc(F)cc4)N(C)C)CC3)N3CCN(Cc4ccccc4)CC3)nc2Cc2ccccc2)C1` (centres unmarked) [compound 106, [{4-[2-[4-benzyl-5-(3-methylpiperidin-1-yl)-oxazol-2-yl]-2-(4-benzyl-piperazin-1-yl)-ethyl]-cyclohexyl}-(4-fluorophenyl)-methyl]-dimethylamine], 61%; to `CC1CC(C)CN(c2oc(C(CC3CCC(C(c4cccs4)N(C)C)CC3)N3CCCCC3)nc2Cc2ccccc2)C1` (centres unmarked) [compound 107, [(4-{2-[4-benzyl-5-(3,5-dimethylpiperidin-1-yl)-oxazol-2-yl]-2-piperidin-1-yl-ethyl}-cyclohexyl)-thiophen-2-yl-methyl]-dimethylamine], 84%.
On the same count and under the same terms, to `CN(CCc1ccccc1)c1oc(C(CC2CCC(C(c3cccs3)N(C)C)CC2)N2CCCCC2)nc1Cc1ccccc1` (centres unmarked) [compound 108, (4-benzyl-2-{2-[4-(dimethylaminothiophen-2-yl-methyl)-cyclohexyl]-1-piperidin-1-yl-ethyl}-oxazol-5-yl)-methylphenethylamine] belongs 88%; to `CCN(CC)c1oc(C(CC2CCC(C(c3cccs3)N(C)C)CC2)N2CCCCC2)nc1Cc1ccccc1` (centres unmarked) [compound 109, (4-benzyl-2-{2-[4-(dimethylaminothiophen-2-yl-methyl)-cyclohexyl]-1-piperidin-1-yl-ethyl}-oxazol-5-yl)-diethylamine], 98%; to `CN(C)C(c1cccs1)C1CCC(CC(c2nc(Cc3ccccc3)c(N3CCSCC3)o2)N2CCCCC2)CC1` (centres unmarked) [compound 110, ({4-[2-(4-benzyl-5-thiomorpholin-4-yl-oxazol-2-yl)-2-piperidin-1-yl-ethyl]-cyclohexyl}-thiophen-2-yl-methyl)-dimethylamine], 97%.
`CC1CCCN(c2oc(C(CC3CCC(C(c4cccs4)N(C)C)CC3)N3CCCCC3)nc2Cc2ccccc2)C1` (centres unmarked) [compound 111, [(4-{2-[4-benzyl-5-(3-methylpiperidin-1-yl)-oxazol-2-yl]-2-piperidin-1-yl-ethyl}-cyclohexyl)-thiophen-2-yl-methyl]-dimethylamine]: the inhibition at 1 µM stood at 92%.
